Laboratory results taken from US11279708B2, “Amidino- and amino-rocaglates as novel translation inhibitors and anticancer agents” (priority 2019, dated 2022).

Legend:
[1] = biological target: T1, eIF4A2:poly r(AG)8 RNA (Homo sapiens, UniProt Q14240); assay: fluorescence polarization (FP) assay, eIF4A2 binding to FAM-labelled RNA; conditions: 10 μM CR-1-31-B
T1 construct: His6 (N); made in house; host or cells: E. coli BL21 (DE3)
Source text: Rocaglates similarly enhance RNA binding of eIF4A1 and eIF4A2. In order to rapidly evaluate the ability of rocaglates to stimulate binding of eIF4A to RNA, a fluorescence polarization (FP) assay using a FAM (fluorescein amidite)-labelled RNA probe (FIG. 18A) was used. […] Due to the high degree of shared amino acid identity between the two paralogs, their apparent similarity with respect to RNA binding activity and response to CR-1-31-B (23), and the fact that eIF4A1 is essential but eIF4A2 is not, eIF4A1 was used in the majority of our subsequent experiments.
Fluorescence Polarization (FP) Assays. Unless otherwise specified, eIF4A (500 nM) was incubated with 10 nM FAM-labelled RNA for 30 min in FP buffer (14.4 mM HEPES-NaOH (pH 8), 108 mM NaCl, 1 mM MgCl2, 14.4% glycerol, 0.1% DMSO, 2 mM DTT, 1 mM AMPPNP) at room temperature in black low volume 384 well plates (Corning 3820). FP readings were performed on a Pherastar FS microplate reader (BMG Labtech).
FIGS. 17A-17F. Assessment of eIF4A1 and eIF4A2 RNA binding specificity. 17A. Chemical structure of the most commonly used rocaglates in biological studies 17B. Coomassie blue staining of SDS-PAGE showing eIF4A1 and eIF4A2 preparations used herein. […]

[2] = biological target: T2, eIF4A1:poly r(AG)10 (Homo sapiens, UniProt P60842); assay: FP competition assay, dissociation of eIF4A from (AG)10 RNA; assay type: binding; conditions: in the presence of compound
T2 construct: His6 (N); made in house; host or cells: E. coli BL21 (DE3)
T2 sequence (P60842 whole entry, species assumed): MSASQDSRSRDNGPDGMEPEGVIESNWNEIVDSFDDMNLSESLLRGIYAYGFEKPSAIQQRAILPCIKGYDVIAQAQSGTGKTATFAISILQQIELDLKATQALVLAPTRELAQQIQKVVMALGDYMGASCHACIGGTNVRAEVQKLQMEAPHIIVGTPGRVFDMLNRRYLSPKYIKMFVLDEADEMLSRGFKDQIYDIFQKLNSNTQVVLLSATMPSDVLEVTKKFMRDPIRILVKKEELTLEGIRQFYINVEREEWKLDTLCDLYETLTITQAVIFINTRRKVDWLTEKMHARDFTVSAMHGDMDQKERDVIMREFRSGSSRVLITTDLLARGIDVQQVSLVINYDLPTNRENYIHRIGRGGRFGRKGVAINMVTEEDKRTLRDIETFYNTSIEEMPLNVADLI
Method: All of these identified compounds retained similar RNA sequence binding preference for eIF4A1 with a bias for polypurine-containing substrates over polypyrimidines (FIG. 17). […] Even in the presence of ATP, which stimulates release of eIF4A from RNA, the half-life of the complexes were much longer than the rates of translation initiation (median <1 min)
Rocaglates sequester eIF4F onto RNA. RocA (2) induced clamping of eIF4A to 5′ leader regions have been proposed to inhibit translation by blocking scanning of 43S PICs. We therefore sought to test if this mechanism was sufficient to account for the translation inhibition observed with RocA, CR-1-31-B (23), and the newly identified ADRs. We supplemented translation extracts programmed with m^7G-(AG)10-FF/HCV/Ren mRNA with wild-type (wt) or rocaglate-resistant eIF4A1(F163L) recombinant protein. […] Thus, if stabilization of endogenous eIF4A in translation extracts onto mRNA is sufficient to mediate translation inhibition, then the addition of recombinant eIF4A1^F163L should not be able to rescue this inhibition. […]
FIG. 21. […] FP results of competition assays in which preformed eIF4A1:rocaglate:FAM-poly r(AG)10 complexes were incubated in the presence of poly r(AG)10 (SEQ ID NO: 39) and dissociation measured as a function of time. n=3±SD.

T1 sequence (Q14240 whole entry, species assumed): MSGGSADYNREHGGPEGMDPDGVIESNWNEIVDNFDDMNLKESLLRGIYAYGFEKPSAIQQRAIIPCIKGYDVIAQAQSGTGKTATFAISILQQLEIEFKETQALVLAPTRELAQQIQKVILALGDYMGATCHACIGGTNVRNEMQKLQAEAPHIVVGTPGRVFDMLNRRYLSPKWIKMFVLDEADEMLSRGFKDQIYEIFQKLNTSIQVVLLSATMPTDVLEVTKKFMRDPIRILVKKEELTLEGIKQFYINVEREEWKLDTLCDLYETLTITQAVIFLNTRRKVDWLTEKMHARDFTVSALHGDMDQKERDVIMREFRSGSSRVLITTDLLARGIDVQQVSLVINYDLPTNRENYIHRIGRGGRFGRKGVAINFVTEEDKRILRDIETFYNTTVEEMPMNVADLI

CONC(=O)[C@H]1[C@@H](O)[C@@]2(O)c3c(OC)cc(OC)cc3O[C@@]2(c2ccc(OC)cc2)[C@@H]1c1ccccc1 [CR-1-31-B]
stimulation of eIF4A2:RNA binding (in words) [1]: equally stimulates binding of both eIF4A1 and eIF4A2

COc1ccc([C@@]23Oc4cc(OC)cc(OC)c4[C@]2(O)[C@H](O)[C@H](C(=O)N(C)C)[C@H]3c2ccccc2)cc1 [RocA, rocaglamide A]
dissociation of eIF4A from (AG)10, t1/2 [2]: 27 min
